Experimental data published in patent publication US6146616A, “Antioxidant and/or antielastase composition based on lupine oil” (priority 1997, dated 2000).

Tests used:
plasmid DNA (pBS) = experiment: 3-D test: protection of adsorbed plasmid DNA against singlet oxygen generated by illuminated methylene blue; format: biochemical; details: for % Specific inhibition: methylene blue + light; for % Aspecific inhibition: on predamaged plasmid pBS^UV, absence of ROS
Description: The test used is a biological system of detecting damage (3-D test) on DNA captured on a microplate (Analytical Biochemistry, 1995, 232, 37-42). The damage is recognized by the repair enzymes and repaired by purified cellular extracts. The repair of the lesions involves a phase for excision and then resynthesis of the damaged and excised DNA fragment. During the reparative synthesis stage, one or more modified nucleotides (digoxigenylated dUTP or DIG-11-dUTP) are incorporated into the DNA. These nucleotides are then recognized by anti-DIG antibodies coupled to alkaline phosphatase. An alkaline phosphatase substrate (Lumi-Phos 530) is then added and the luminescent signal emitted is measured by a luminometer (Lumax 2, marketed by the company S.F.R.I.). The intensity of the signal obtained depends on the different parameters (extracts, salt concentration, quantity of DNA, reaction time and the like) including that relating to the number of lesions repaired, and therefore of lesions present on the DNA. A dose-response relationship is observed within the limit of 1 to 15 lesions per 6 kilobases for most of the lesions.
This system is capable of repairing any type of lesion since all the enzymes for repairing DNA lesions are present and active in the extracts. The oxidative damage is therefore recognized in this system.
The damage is caused by reactive oxygen species (ROS) by means of a system which induces the formation of lesions on the DNA adsorbed in a well, leading to the reading of a reparative synthesis signal. In the presence of a compound or of a mixture of compounds which make it possible to protect DNA as a result, for example, of antioxidant or anti-free radical properties, a decrease or even an elimination of the repair signal, a reflection of the quantity of lesions, is observed.
ROS ^1 O2, a powerful electrophile which has a very short life, is generated by illumination of methylene blue. It therefore reacts very rapidly with the bases in the DNA and produces various types of damage such as modification of bases or loss of bases, which are very genotoxic.
Ultrapurified plasmid DNA (pBS) (predominantly supercoiled form) is placed in contact with the wells sensitized by poly-lysine for 30 minutes at 30° C., with gentle shaking, at a concentration of 1 μg/ml in a volume of 50 μl. Under these conditions, the adsorption of the DNA is quantitative (about 40 ng per well).
A positive control for repair, consisting of a plasmid predamaged by UV-C (called pBS^UV), is added.
After incubation, the wells are washed twice with a solution of PBS supplemented with 0.1% Tween 20.
A stock solution of methylene blue at 10 μg/ml is diluted to a concentration of 4 ng/ml in ultrapure water (MilliQ quality from Millipore).
This solution is mixed in an equal volume with various dilutions of the samples, and 50 μl of the mixture (at 2 ng/ml of methylene blue) are added to the wells containing the adsorbed plasmid DNA. The wells are placed on ice and illuminated for 20 minutes with 2 lamps of 100 W, 30 cm apart.
The four samples were tested at 3 dilutions.
The dilutions were made 2X, in propylene glycol, in order to obtain the desired dilutions after addition of a volume of methylene blue solution of 4 ng/ml.
In order to check that the decrease in the repair signal is not aspecific, the same dilutions (IX) are incubated under the same conditions on pBS^UV. […] An inhibition of the control repair signal for pBS^UV can, for example, be explained by a direct interaction of the sample with the DNA which blocks access of the lesions to the repair enzymes.
These different dilutions were incubated on the nondamaged DNA (pBS) and illuminated in the absence of methylene blue. This test makes it possible to check that the product tested is not genotoxic.
They are expressed as the percentage residual repair inhibition. The 0% value corresponds to the repair signal under the condition of methylene blue treatment alone. […]

pancreatic elastase = target: T1, pancreatic elastase (Sus scrofa, UniProt P00772); experiment: Antielastase activity in sections of human skin explant (intact elastic fibers, image analysis); format: biochemical; details: for % Inhibition of the elastase activity: elastase 5 IU/ml, 3 hours, 37° C.; for Inhibition (of elastase, graded 0 to +++): Table 8
T1 construct: purchased Sigma E0258
Description: The study of the antielastase activity represents a good indication of skin aging since it is now well known that the degradation of the elastic fibers present in the dermis involves endogenous elastases. The test used makes it possible to study the antielastase activity in vitro in sections of human skin explant. An application of purified elastase on a limited portion of the section is accompanied by degradation of the endogenous elastic fibers. The elastic fibers are stained with (+)-catechin. The percentage of intact elastic fibers per optical field is evaluated by image analysis. A product having antielastase activity makes it possible to preserve the integrity of the elastic fibers in the presence of purified elastase.
A pancreatic elastase (type IV, reference E0258, Sigma) is used. The medium for incubation of the human skin sections ("vehicle") is 0.1 M Herpes buffer, adjusted to pH 7.5 with sodium hydroxide containing 0.1 M sodium chloride.
The skin sections are produced from surgical waste collected after abdominal plastic surgery. The donor was a person. Explants of 1 cm in diameter are produced and they are deposited on a cork support and they are frozen at -80° C. Transverse sections 6 µm thick are produced with a cryomicrotome. The sections are fixed on glass slides and maintained hydrated with the vehicle during the test.
The test products are tested at 0.5; 1 and 5% (v/v) in the vehicle.
The elastatinal is tested at 0.01 and 0.1% (w/v) in the vehicle.
The mercuric chloride is tested at 0.025 and 0.125% (w/v) in the vehicle.
The dilutions of the test products and of the reference products are deposited on the skin sections in an amount of 100 μl per section (0.32 cm^2 in surface area), and preincubated for ten minutes at 37° C. Filter paper strips (0.16 cm^2 in surface area) impregnated with the vehicle alone (control vehicle) or containing pancreatic elastase at 5 international units (IU)/ml (control enzyme) are deposited on the sections. The slides are placed in a humid chamber at 37° C. for three hours.
After incubation, the sections are rinsed with the incubation medium and stained with (+)-catechin. The activity of the enzyme in the absence and in the presence of the test products or of the reference products is evaluated by image analysis: the image of the stained sections is digitized on a video screen; a software for image analysis makes it possible to measure the amounts of gray in the binary images; the surface area occupied by the intact elastic fibers is measured. The results are expressed as percentage of intact elastic fibers per optical field.
The percentage inhibition of the elastase activity of the test products and of the reference products is calculated with the aid of the following formula: [formula]
The antielastase activity is determined under the conditions indicated in IV above.

[1] = tested on: human epidermal keratinocytes; experiment: Anti-free radical activity: hydroperoxides by fluorometry in UVA-irradiated keratinocytes; format: cell-based; details: Keratinocyte, light or radiation study, 1.5 h, 0.1% (w/v), UVA 90 minutes (10 J/cm^2), read-out: % protection
Description: The cells are human epidermal keratinocytes. […] The cells are used at the sixth passage, they are inoculated at 1×10^5 cells per well into 6-well culture plates. They are used at confluence.
It is quantified by a fluorometric method which detects the quantity of hydroperoxides which are metabolites of free radicals. An appropriate probe which converts to a fluorescent derivative in their presence is used, according to the method described by Keston A. S. and Brandt R. (The fluorometric analysis of ultramicro quantities of hydrogen peroxide, Anal. Biochem. 11, 1965, 1-5).
The free radicals are generated at the cell culture level by irradiation with ultraviolet A rays. […]
After irradiation, the keratinocytes are lyzed by the action of ultrasound. The cellular lysates are transferred into 96-well plates and analyzed by fluorimetry with the aid of a plate analyzer (excitation: 355 nm, emission: 460 nm).
The results are expressed in fluorescence unit/culture well.
The percentage protection of the test products or of the reference products R1 and R2 was calculated with the aid of the following formula: [formula]
By convention, when the values measured in the presence of the test products or in the presence of the reference products were less than those of the "non-irradiated control", the percentage protection was expressed as 100%.

T1 sequence (P00772 27-266): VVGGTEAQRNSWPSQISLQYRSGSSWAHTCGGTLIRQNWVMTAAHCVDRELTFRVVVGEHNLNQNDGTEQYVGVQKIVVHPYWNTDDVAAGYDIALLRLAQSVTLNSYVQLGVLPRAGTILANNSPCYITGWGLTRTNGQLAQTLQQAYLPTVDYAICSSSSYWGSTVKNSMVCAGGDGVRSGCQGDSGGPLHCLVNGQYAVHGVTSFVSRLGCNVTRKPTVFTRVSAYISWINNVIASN

| SMILES | % Specific inhibition (plasmid DNA (pBS); 0.01%) | % Aspecific inhibition (plasmid DNA (pBS); 0.01%) | protective properties on DNA towards singlet oxygen (in words) (plasmid DNA (pBS); 0.01 to 1%) | % Specific inhibition (plasmid DNA (pBS); 0.1%) | % Aspecific inhibition (plasmid DNA (pBS); 0.1%) | % Specific inhibition (plasmid DNA (pBS); 1%) | % Aspecific inhibition (plasmid DNA (pBS); 1%) | also measured |
| --- | --- | --- | --- | --- | --- | --- | --- | --- |
| CC1=C(/C=C/C(C)=C/C=C/C(C)=C/C=C/C=C(C)/C=C/C=C(C)/C=C/C2=C(C)CCCC2(C)C)C(C)(C)CCC1 [Control, β-carotene] | 45% | 0% | does not exhibit a dose-effect | 53% | +2% | 45% | 0% | aspecific effect / aspecificity (in words) (plasmid DNA (pBS); 0.01 to 1%): does not show, on the other hand, aspecificity |
| CC(C)C[C@H](NC(=O)N[C@H](C(=O)N[C@@H](CCC(N)=O)C(=O)N[C@@H](C)C=O)[C@@H]1CCNC(=N)N1)C(=O)O [Elastatinal, elastatinal] | – | – | – | – | – | – | – | % Inhibition of the elastase activity (pancreatic elastase; 0.01% (w/v)): 71.5%; % Inhibition of the elastase activity (pancreatic elastase; 0.01% (w/v), listed as elastatinal): 71%; % Inhibition of the elastase activity (pancreatic elastase; 0.1% (w/v)): 59.9%; % Inhibition of the elastase activity (pancreatic elastase; 0.1% (w/v), listed as elastatinal): 60%; Inhibition (of elastase, graded 0 to +++) (pancreatic elastase; 0.1% (w/v)): strongly inhibits |
| [Cl][Hg][Cl] [Mercuric chloride, mercuric chloride] | – | – | – | – | – | – | – | % Inhibition of the elastase activity (pancreatic elastase; 0.025% (w/v)): 18.4%; % Inhibition of the elastase activity (pancreatic elastase; 0.025% (w/v), listed as mercuric chloride): 18%; % Inhibition of the elastase activity (pancreatic elastase; 0.125% (w/v)): 39.3%; % Inhibition of the elastase activity (pancreatic elastase; 0.125% (w/v), listed as mercuric chloride): 39%; Inhibition (of elastase, graded 0 to +++) (pancreatic elastase; 0.125% (w/v)): strongly inhibits |
| CC(O)CO (centres unmarked) [Propylene glycol, propylene glycol] | 0% | 2% | only very weak protective properties | 6% | 6% | 13% | 7% | – |
| CC(=O)Oc1c(C)c(C)c2c(c1C)CCC(C)(CCCC(C)CCCC(C)CCCC(C)C)O2 (centres unmarked) [Vitamin E acetate, vitamin E acetate] | – | – | – | – | – | – | – | inhibition at 0.1 % [1]: 65% |
